pIC50: −log10 of the molar value.
Tests used:
[1] = Cytotoxicity against human THP1 cells after 48 hrs; type: cell-based; conditions: THP-1 cells, read-out: ID50
[2] = Therapeutic index, ID50 for human THP1 cells to ID50 for Trypanosoma cruzi; type: cell-based; conditions: THP-1 cells versus Trypanosoma cruzi, read-out: TI
[3] = system: Trypanosoma cruzi; test: Antitrypanosomal activity against Trypanosoma cruzi Tulahuen 2 at 25 uM after 5 days; type: functional; conditions: Tulahuen 2, 120 h, read-out: GI
[4] = system: Trypanosoma cruzi; test: Antitrypanosomal activity against Trypanosoma cruzi Tulahuen 2 after 5 days; type: functional; conditions: Tulahuen 2, 120 h, read-out: ID50 (the source's name)

SMILES | CC50 at 48 h [1] [µM] | selectivity ratio [2] | inhibition of growth at 25 µM [3] [%] | pIC50 [4]
CC1CS(=O)(=O)CCN1/N=C/c1ccc([N+](=O)[O-])o1 (stereo not drawn) [NIFURTIMOX] | > 300 | > 38 | 100 | 5.11
CNC(=S)N/N=C(\C)c1ccc([N+](=O)[O-])cc1 | > 400 | > 16 | 31 | < 4.60
C/C(=N\NC(=S)N1CCCCC1)c1ccc([N+](=O)[O-])cc1 | – | – | 12 | < 4.60
C/C(=N\NC(=S)N(C)C)c1ccc([N+](=O)[O-])cc1 | > 400 | > 1430 | 100 | 6.55
O=C(Cn1ccnc1[N+](=O)[O-])NCc1ccccc1 [BENZNIDAZOLE] | > 300 | > 40 | 100 | 5.13

Reference: ChEMBL document CHEMBL1156673, “4-nitroacetophenone-derived thiosemicarbazones and their copper(II) complexes with significant in vitro anti-trypanosomal activity” (Eur J Med Chem, 2008)
